We go through 2 compounds from patent US20090253757A1, “Plant protection agents” (priority 1996, published 2009).

Each structure is given as a SMILES string.

The experiment has as its system Erysiphe graminis. The experiment can be described thus: Activity against Erysiphe graminis on barley (residual protective / systemic). The class given is in vivo. The text has this:
A synergistic effect is present if the activity of the active ingredient combination is greater than the sum of activities of the individual components. The activity E to be expected for a given active ingredient combination obeys the so-called COLBY formula and may be calculated as follows (COLBY, S. R. “Calculating synergistic and antagonistic responses of herbicide combination”. Weeds, Vol. 15, pages 20-22; 1967): ppm=milligrams active ingredient (=ai) per litre spray mixture X=% activity from active ingredient I during application of p ppm of active ingredient Y=% activity from active ingredient II during application of q ppm of active ingredient The expected (additive) activity of active ingredients I+II during application of […] active ingredient is, according to Colby If the activity actually observed (O) is greater than the expected activity (E), then the combination is super-additive in its activity, i.e. there is a synergistic effect ([…] factor). Barley plants of approximately 8 cm height are sprayed until dripping wet with an aqueous spray mixture prepared from wettable powder of the active ingredient mixture, and 3 to 4 hours later are dusted with conidia of the fungus. The infected plants are placed in a greenhouse at […]. 12 days after infection, the fungal attack is evaluated. An aqueous spray mixture prepared from wettable powder of the active ingredient mixture is poured onto barley plants of approximately 8 cm height. […] 48 hours later, the plants are dusted with conidia of the fungus. The infected plants are placed in a greenhouse at 22° C. 12 days after infection, the fungal attack is evaluated.

For the compound `Fc1ccc(Oc2ccnc3cc(Cl)cc(Cl)c23)cc1` [IIA, 5,7-dichloro-4-(4-fluorophenoxy)quinoline], the inhibition at 0.1 µg/mL (Blumeria graminis, active ingredient IIA 0.1 mg/litre alone, read-out: % activity found O) is 4%. The inhibition at 0.5 µg/mL (Blumeria graminis, active ingredient IIA 0.5 mg/litre alone, read-out: % activity found O) was determined as 6%. Also, the inhibition at 1 µg/mL (Blumeria graminis, active ingredient IIA 1.0 mg/litre alone, read-out: % activity found O) came to 8%. The inhibition at 10 µg/mL (Blumeria graminis, active ingredient IIA 10.0 mg/litre alone, read-out: % activity found O) stood at 21%.
Regarding `CON=C(C(=O)OC)c1ccccc1CON=C(C)c1cccc(C(F)(F)F)c1` [I, 2-[α-{[(α-methyl-3-trifluoromethyl-benzyl)imino]-oxy}-o-tolyl]-glyoxylic acid-methylester-O-methyloxime], the “% activity found O” value is, setting by setting: (active ingredient I 0.1 mg/litre alone) 6%; (active ingredient I 1.0 mg/litre alone) 30%.
